# Source: the NIST ThermoML archive (doi:10.1016/j.jct.2005.03.013)
# Numbers after ± are expanded uncertainties.
# Tests used:
# [1] = for viscosity: 101.33 kPa, Liquid
# [2] = molar heat capacity at constant pressure; conditions: 101.33 kPa, Liquid, Large sample (1 g) DSC
viscosity ([1]; 283 K) [mPa·s],viscosity ([1]; 298 K) [mPa·s],viscosity ([1]; 303 K) [mPa·s],viscosity ([1]; 313 K) [mPa·s],viscosity ([1]; 323 K) [mPa·s],viscosity ([1]; 333 K) [mPa·s],viscosity ([1]; 343 K) [mPa·s],Triple point temperature ([1]; Crystal) [K],Compound,Glass transition temperature [1] [°C],molar heat capacity at constant pressure ([2]; 298 K) [J/K/mol],molar heat capacity at constant pressure ([2]; 323 K) [J/K/mol],viscosity ([1]; 293 K) [mPa·s],Triple point temperature ([1]; Metastable crystal) [K]
–,–,–,–,–,–,–,–,CCCCCCCCn1cc[n+](C)c1.O=S(=O)([N-]S(=O)(=O)C(F)(F)F)C(F)(F)F,-84 ± 4,654 ± 66,677 ± 68,–,–
–,–,–,–,–,–,–,–,CCCC[n+]1cccc(C)c1.[Br-] [1-butyl-3-methylpyridinium bromide],-36 ± 4,–,–,–,–
10240 ± 4400,2790 ± 910,1910 ± 560,964 ± 230,511 ± 98,300 ± 44,187 ± 21,–,CCCCCCCCCCCCCC[N+](C)(CCOCCOCCOCCOCCOCCO)CCOCCOCCOCCOCCOCCO.COS(=O)(=O)[O-],–,1066 ± 110,1098 ± 110,–,–
–,–,–,–,–,–,–,469 ± 3,CCCCCC[n+]1ccc(N(C)C)cc1.[Br-] [4-(dimethylamino)-1-hexylpyridinium bromide],–,–,–,–,–
–,–,–,–,–,–,–,–,CCCCCC[n+]1cccc(C)c1.[Br-] [1-hexyl-3-methylpyridinium bromide],-37 ± 4,343 ± 35,358 ± 36,–,–
356 ± 32,137 ± 9,105 ± 6,66 ± 4,43 ± 2,31 ± 2,23 ± 1,–,CCOS(=O)(=O)[O-].CC[n+]1ccccc1 [1-ethylpyridinium ethyl sulfate],–,–,–,183 ± 14,–
19610 ± 4800,3173 ± 570,1986 ± 310,846 ± 110,405 ± 40,221 ± 17,130 ± 9,–,CCOC(=O)c1ccc[n+](CC)c1.CCOS(=O)(=O)[O-] [3-(ethoxycarbonyl)-1-ethylpyridinium ethylsulfate],-44 ± 3,513 ± 52,530 ± 54,5675 ± 1200,–
–,–,–,–,–,–,–,392 ± 3,CCCCCC[n+]1ccc(N(C)C)c(C)c1.[Br-] [4-(dimethylamino)-1-hexyl-3-methylpyridinium bromide],-2 ± 4,–,–,–,–
414 ± 39,150 ± 10,114 ± 7,70 ± 4,45 ± 2,32 ± 2,23 ± 1,–,CCOS(=O)(=O)[O-].CC[n+]1cccc(C)c1 [1-ethyl-3-methylpyridinium ethylsulfate],-71 ± 3,389 ± 39,402 ± 41,204 ± 17,–
–,–,–,–,–,–,–,378 ± 3,CCCC[n+]1ccccc1.[Br-] [1-butylpyridinium bromide],–,–,–,–,–
1630 ± 240,440 ± 44,309 ± 27,165 ± 12,97 ± 6,62 ± 3,42 ± 2,–,CC(=O)[O-].CCCCn1cc[n+](C)c1 [1-butyl-3-methylimidazolium acetate],–,–,–,646 ± 80,–
–,–,–,–,–,–,–,–,CCCCCC[n+]1ccc(N2CCC(C)CC2)cc1.[Br-] [1-hexyl-4-(4-methyl-1-piperidinyl)pyridinium bromide],33 ± 4,–,–,–,–
–,–,–,–,–,–,–,495 ± 3,CCCC[n+]1ccc(N(C)C)cc1.[Br-] [1-butyl-4-(dimethylamino)pyridinium bromide],–,–,–,–,–
–,–,–,–,–,–,–,–,CCCCCCCCn1cc[n+](C)c1.[Br-] [1-methyl-3-octylimidazolium bromide],–,392 ± 40,408 ± 41,–,–
155 ± 10,70 ± 4,53 ± 3,37 ± 2,26 ± 1,19 ± 1,15 ± 1,–,CCCCn1cc[n+](C)c1.O=C([O-])C(F)(F)F [1-butyl-3-methylimidazolium trifluoroacetate],–,–,–,89 ± 5,–
–,–,–,–,–,–,–,368 ± 3,"CCCC[n+]1cc(C)cc(C)c1.[Br-] [1-butyl-3,5-dimethylpyridinium bromide]",-24 ± 4,–,–,–,–

Compound,viscosity ([1]; 283 K) [mPa·s],viscosity ([1]; 298 K) [mPa·s],viscosity ([1]; 303 K) [mPa·s],viscosity ([1]; 313 K) [mPa·s],viscosity ([1]; 323 K) [mPa·s],viscosity ([1]; 333 K) [mPa·s],viscosity ([1]; 343 K) [mPa·s],Triple point temperature ([1]; Crystal) [K],Glass transition temperature [1] [°C],molar heat capacity at constant pressure ([2]; 298 K) [J/K/mol],molar heat capacity at constant pressure ([2]; 323 K) [J/K/mol],viscosity ([1]; 293 K) [mPa·s],Triple point temperature ([1]; Metastable crystal) [K]
CCCCCCn1cc[n+](C)c1C.O=S(=O)([N-]S(=O)(=O)C(F)(F)F)C(F)(F)F,317 ± 27,131 ± 9,101 ± 6,63 ± 3,42 ± 2,30 ± 2,22 ± 1,268 ± 3,-74 ± 4,686 ± 69,705 ± 71,171 ± 13,–
CCCCCC[n+]1cccc(C)c1.O=S(=O)([N-]S(=O)(=O)C(F)(F)F)C(F)(F)F,197 ± 14,85 ± 5,67 ± 4,44 ± 2,30 ± 2,22 ± 1,16 ± 1,–,-82 ± 4,624 ± 63,644 ± 65,110 ± 7,–
CCCCCC[n+]1ccn(C)c1.O=S(=O)([N-]S(=O)(=O)C(F)(F)F)C(F)(F)F,148 ± 10,68 ± 4,55 ± 3,37 ± 2,26 ± 1,19 ± 1,15 ± 1,–,-84 ± 4,583 ± 59,604 ± 61,86 ± 5,266 ± 3
CCCC[n+]1cccc(C)c1.O=S(=O)([N-]S(=O)(=O)C(F)(F)F)C(F)(F)F,138 ± 8,63 ± 3,51 ± 2,34 ± 2,24 ± 1,18 ± 1,14 ± 1,–,-84 ± 4,622 ± 63,641 ± 65,80 ± 4,–
CCn1cc[n+](C)c1.O=S(=O)([N-]S(=O)(=O)C(F)(F)F)C(F)(F)F,52 ± 3,32 ± 2,26 ± 1,19 ± 1,15 ± 1,12 ± 1,9 ± 1,–,–,–,–,36 ± 2,–
